The structures appear in SMILES notation. ± gives the expanded uncertainty stated by the source.

The conditions of data set [1]: Crystal; DTA.
Data set [2] is described as follows: Molar enthalpy of transition or fusion. The settings on record: Crystal; DSC.

In the case of `CN(C)CCOC(c1ccccc1)c1ccccc1.Cl` [2-diphenylmethoxy-N,N-dimethylethanamine hydrochloride], the Normal melting temperature in data set [1] was 169.2 ± 0.61 °C. The “Molar enthalpy of transition or fusion” value in data set [2] is 8.72 ± 0.406 kcal/mol.

The values are drawn from the NIST ThermoML archive (doi:10.1016/j.jct.2015.09.032).
